Structures can show the parent of a compound that is named as a salt. Where two headings read alike, the source gives them in different places.
Tested on: LMP1 expression in Kem I cells
Test: microbe, parasite or virus in culture
Type: cell-based, EBV
Settings: for fold induction at 2.5 µM: human gammaherpesvirus 4, 48 h; for Average LMP1 Fold Increase / Replicate 1-LMP1 Fold Increase / Replicate 2-LMP1 Fold Increase: Kem I cells, 48 hours
[1] = read-out: Average LMP1 Fold Increase, Kem I cells, dose 2.5 uM, 48 hours, LMP1 transcript by in-well qRT-PCR, average of the two replicates
[2] = read-out: Replicate 1-LMP1 Fold Increase, Kem I cells, dose 2.5 uM, 48 hours, LMP1 transcript by in-well qRT-PCR, screen replicate 1
[3] = read-out: Replicate 2-LMP1 Fold Increase, Kem I cells, dose 2.5 uM, 48 hours, LMP1 transcript by in-well qRT-PCR, screen replicate 2
[4] = read-out: Average LMP1 Fold Increase, Kem I cells, 2.5 uM, 48 hours, average of replicates 1 and 2
[5] = read-out: Replicate 1-LMP1 Fold Increase, Kem I cells, 2.5 uM, 48 hours, fold change in LMP1 transcript vs vehicle
[6] = read-out: Replicate 2-LMP1 Fold Increase, Kem I cells, 2.5 uM, 48 hours, fold change in LMP1 transcript vs vehicle
[7] = 2.5 uM, average of replicates 1 and 2
[8] = 2.5 uM, fold change in LMP1 transcript vs vehicle
[9] = dose 2.5 uM, LMP1 transcript by in-well qRT-PCR, average of the two replicates
[10] = dose 2.5 uM, LMP1 transcript by in-well qRT-PCR, screen replicate 1
[11] = dose 2.5 uM, LMP1 transcript by in-well qRT-PCR, screen replicate 2

Row | Compound | fold induction at 2.5 µM [4] | fold induction at 2.5 µM [5] | fold induction at 2.5 µM [6] | Average LMP1 Fold Increase [7] | Replicate 1-LMP1 Fold Increase [8] | Replicate 2-LMP1 Fold Increase [8] | other results
1 | CNCc1ccc(-c2cc(-c3nc(-c4ccc(S(=O)(=O)C(C)C)cc4)cnc3N)on2)cc1 [VE-822] |  |  |  |  |  |  | fold induction at 2.5 µM [1]: 4.03; fold induction at 2.5 µM [2]: 3.28; fold induction at 2.5 µM [3]: 4.78
2 | Cc1cc(OCCCS(C)(=O)=O)cc(C)c1-c1cccc(COc2ccc3c(c2)OC[C@H]3CC(=O)O)c1 [TAK-875] |  |  |  |  |  |  | fold induction at 2.5 µM [1]: 0.57; fold induction at 2.5 µM [2]: 0.55; fold induction at 2.5 µM [3]: 0.59
3 | CCOC(=O)C1=C(C)NC(C)=C(C(=O)OC)C1c1cccc(Cl)c1Cl (stereo not drawn) [Felodipine] | 0.77 | 0.84 | 0.69 |  |  |  | 
4 | Cc1c(Cl)cccc1Nc1ccccc1C(=O)O [Tolfenamic Acid] |  |  |  |  |  |  | fold induction at 2.5 µM [1]: 0.15; fold induction at 2.5 µM [2]: 0.11; fold induction at 2.5 µM [3]: 0.2
5 | O=C(Nc1cc(C(F)(F)F)ccc1N1CCCCC1)c1ccncc1 [SRPIN340] |  |  |  | 0.84 | 1.24 | 0.44 | 
6 | Cc1cc(C)nc(NS(=O)(=O)c2ccc(NC(=S)NC(=O)COc3ccc(Br)cc3Cl)cc2)n1 [ZCL278] |  |  |  |  |  |  | Average LMP1 Fold Increase [9]: 0.85 fold; Replicate 1-LMP1 Fold Increase [10]: 1.26 fold; Replicate 2-LMP1 Fold Increase [11]: 0.44 fold
7 | SNS-314 Mesylate |  |  |  | 0.51 | 0.71 | 0.32 | 
8 | Cc1ccc(S(=O)(=O)NC(=O)NN2CC3CCCC3C2)cc1 (stereo not drawn) [Gliclazide] | 0.73 | 0.98 | 0.49 |  |  |  | 
9 | HA14-1 |  |  |  | 0.73 | 0.62 | 0.83 | 
10 | O=C(O)C(Cc1ccccc1[N+](=O)[O-])=NNc1nc(-c2ccc(Cl)c(Cl)c2)cs1 (mixture of isomers) [4EGI-1] |  |  |  | 0.64 | 0.41 | 0.86 | 
11 | c1cc(-c2cnn3cc(-c4ccc(N5CCNCC5)cc4)cnc23)c2cccnc2c1 [LDN-212854] |  |  |  | 0.62 | 0.96 | 0.27 | 
12 | CCOC(=O)[C@H](CCc1ccccc1)N[C@@H](C)C(=O)N1C(=O)N(C)C[C@H]1C(=O)O [Imidapril HCl] | 0.66 | 0.88 | 0.44 |  |  |  | 
13 | CCCCCCCCCCCCCCCCn1cc[n+](Cc2ccccc2)c1C.[I-] [NH125] |  |  |  | 0.70 | 0.94 | 0.46 | 
14 | CNC(=O)c1cc(Oc2ccc(NC(=O)Nc3cc(C(C)(C)C)nn3-c3ccc4ncccc4c3)c(F)c2)ccn1 [DCC-2036 (Rebastinib)] |  |  |  | 0.38 | 0.50 | 0.25 | 
15 | C#CCN[C@@H]1CCc2ccccc21 [Rasagiline Mesylate] | 0.69 | 0.86 | 0.51 |  |  |  | 
16 | CC1=C(C(=O)OC2CCCCC2)C(c2ccc([N+](=O)[O-])cc2)C2=C(CC(C)(C)CC2=O)N1 (stereo not drawn) [FLI-06] |  |  |  | 0.46 | 0.19 | 0.73 | 
17 | BAM7 |  |  |  | 0.93 | 0.51 | 1.35 | 
18 | COc1cc(CCc2cc(NC(=O)c3ccc(N4CC(C)NC(C)C4)cc3)n[nH]2)cc(OC)c1 (stereo not drawn) [AZD4547] |  |  |  | 0.13 | 0.11 | 0.15 | 
19 | CC(C)C[C@H](NC(=O)[C@H](Cc1ccccc1)NC(=O)c1cnccn1)B(O)O [Bortezomib (PS-341)] |  |  |  | 77.22 | 150.06 | 4.38 | 
20 | CC(C)OC(=O)C1=CN(C(=O)c2ccc(F)c(F)c2)CC(C)(C)c2c1[nH]c1ccccc21 [XL335] |  |  |  |  |  |  | fold induction at 2.5 µM [1]: 0.27; fold induction at 2.5 µM [2]: 0.39; fold induction at 2.5 µM [3]: 0.14
21 | Oc1ccc(Nc2nc(-c3ccc(Cl)cc3)cs2)cc1 [SKI II] |  |  |  | 1.00 | 0.96 | 1.03 | 
22 | CC1(COc2ccc3c(c2)ncn3-c2ccc3cccc(N4CCC(N)CC4)c3n2)COC1 [Crenolanib (CP-868596)] |  |  |  | 4.04 | 2.56 | 5.53 | 
23 | COc1ccc2cc([C@H](C)C(=O)O)ccc2c1 [Naproxen] | 0.62 | 0.69 | 0.56 |  |  |  | 

Row | Compound | fold induction at 2.5 µM [4] | fold induction at 2.5 µM [5] | fold induction at 2.5 µM [6] | Average LMP1 Fold Increase [7] | Replicate 1-LMP1 Fold Increase [8] | Replicate 2-LMP1 Fold Increase [8] | other results
24 | CCN1CCC[C@H]1CNC(=O)c1cc(S(N)(=O)=O)ccc1OC [Levosulpiride] | 0.5 | 0.7 | 0.3 |  |  |  | 
25 | C[C@](O)(COc1ccc(C#N)cc1)C(=O)Nc1ccc(C#N)c(C(F)(F)F)c1 [MK-2866 (GTx-024)] |  |  |  | 0.64 | 0.72 | 0.56 | 
26 | C[C@]12C=CC(=O)N[C@@H]1CC[C@@H]1[C@@H]2CC[C@]2(C)[C@@H](C(=O)Nc3cc(C(F)(F)F)ccc3C(F)(F)F)CC[C@@H]12 [Dutasteride] | 0.39 | 0.38 | 0.41 |  |  |  | 
27 | C[C@H](NCc1ccc(OCc2cccc(F)c2)cc1)C(N)=O [Safinamide Mesylate] | 0.95 | 0.2 | 1.71 |  |  |  | 
28 | CN(c1ncccc1CNc1nc(Nc2ccc3c(c2)CC(=O)N3)ncc1C(F)(F)F)S(C)(=O)=O [PF-562271] |  |  |  | 0.50 | 0.81 | 0.19 | 
29 | NC(=O)c1cccc(-c2cccc(OC(=O)NC3CCCCC3)c2)c1 [URB597] |  |  |  |  |  |  | fold induction at 2.5 µM [1]: 0.54; fold induction at 2.5 µM [2]: 0.52; fold induction at 2.5 µM [3]: 0.55
30 | C=C1C(=O)O[C@@H]2/C=C(\C)CC/C=C(\C)CC[C@@H]12 [Costunolide] | 1.21 | 0.79 | 1.62 |  |  |  | 
31 | COC(=O)C1=C(C#N)NC(C)=C(C(=O)OC(C)C)C1c1cccc([N+](=O)[O-])c1 (stereo not drawn) [Nilvadipine] | 0.72 | 0.96 | 0.47 |  |  |  | 
32 | COc1cc2c(N3CCN(C(=O)Nc4ccc(OC(C)C)cc4)CC3)ncnc2cc1OCCCN1CCCCC1 [Tandutinib (MLN518)] |  |  |  |  |  |  | Average LMP1 Fold Increase [9]: 0.31 fold; Replicate 1-LMP1 Fold Increase [10]: 0.21 fold; Replicate 2-LMP1 Fold Increase [11]: 0.41 fold
33 | Cn1cnc2c(F)c(Nc3ccc(Br)cc3Cl)c(C(=O)NOCCO)cc21 [Selumetinib (AZD6244)] |  |  |  | 0.54 | 0.64 | 0.44 | 
34 | CCCCc1nc(Cl)c(CO)n1Cc1ccc(-c2ccccc2-c2nnn[n-]2)cc1.[K+] [Losartan Potassium (DuP 753)] |  |  |  | 0.35 | 0.21 | 0.48 | 
35 | COc1cc(OC)c(NC(=O)Nc2cc(C)on2)cc1Cl [PNU-120596] |  |  |  | 0.30 | 0.17 | 0.44 | 
36 | Cc1ccc(NC(=O)C2(c3ccc4c(c3)OC(F)(F)O4)CC2)nc1-c1cccc(C(=O)O)c1 [VX-809 (Lumacaftor)] |  |  |  |  |  |  | Average LMP1 Fold Increase [9]: 0.87 fold; Replicate 1-LMP1 Fold Increase [10]: 0.55 fold; Replicate 2-LMP1 Fold Increase [11]: 1.18 fold
37 | CC12CC3CC(C)(C1)CC(N)(C3)C2 [Memantine HCl] | 0.42 | 0.55 | 0.3 |  |  |  | 
38 | COc1ccccc1Oc1c(NS(=O)(=O)c2ccc(C(C)(C)C)cc2)nc(-c2ncccn2)nc1OCCO [Bosentan Hydrate] | 0.81 | 1.22 | 0.4 |  |  |  | 
39 | CCCCN1CCCCC1C(=O)Nc1c(C)cccc1C (stereo not drawn) [Bupivacaine HCl] | 0.59 | 0.64 | 0.53 |  |  |  | 
40 | CC(=O)Nc1nc2c(Oc3cc(-c4ccc(C(F)(F)F)cc4)ncn3)cccc2s1 [AMG-517] | 0.52 | 0.56 | 0.48 |  |  |  | 
41 | O=C(Nc1cccnc1)N1CCC(Cc2cccc(Oc3ccc(C(F)(F)F)cn3)c2)CC1 [PF-3845] |  |  |  | 0.32 | 0.16 | 0.48 | 
42 | COc1ccc(-c2cnc3c(-c4cccc5ncccc45)cnn3c2)cc1 [ML347] |  |  |  | 0.34 | 0.19 | 0.49 | 
43 | Oc1c2ccccc2c2c3c(cccc13)N=N2 [SP600125] | 0.6 | 0.67 | 0.53 |  |  |  | 
44 | CCC(=O)NCC[C@@H]1CCc2ccc3c(c21)CCO3 [Ramelteon] | 0.33 | 0.45 | 0.22 |  |  |  | 
45 | NC1(Cc2ccc(Cl)cc2)CCN(c2ncnc3[nH]ccc23)CC1 [CCT128930] |  |  |  | 0.59 | 0.40 | 0.78 | 

— US20230053688A1, “METHODS TO ALTER LATENCY IN EBV+ MALIGNANCIES” (Cornell University, priority 2020, published 2023)
